Where two headings read alike, the source gives them in different places. Values belong to the compound of their own block, whether it stands above or below them.
Experiments:
[1] = biological target: T1, immuno-purified cdk2 from LNCaP cells (Homo sapiens, UniProt P24941); experiment: Direct inhibition of immuno-purified cdk2 activity in vitro; assay type: biochemical; conditions: 50 μM, immuno-purified cdk2, positive control
T1 construct: Two hundred mg of total protein extracts were immuno-precipitated with cdk2 antibody overnight at 4° C
Experimental: (§1) Assay for cyclin dependent kinase activity: HUVEC and LNCaP cells were cultured in EMB (endothelial cell basal medium) and RPMI 1640 containing 10% FBS, respectively. The cells grown exponentially were exposed to indicated concentrations of meisoindigo or NATURA for 24 hr. The cells were harvested, washed, and total proteins extracted as described previously. One hundred μg of the proteins were immuno-precipitated using antibodies against cdk2, cdk4/6, PKC, ERK2 or cyclin D1 overnight at 4° C. in the presence of a cocktail of protease inhibitors. The immuno-precipitates were washed 4 times with protein extraction buffer and once with kinase assay buffer, and reacted with 75 μg/ml histone H1 in the presence of [γ-^32P]-ATP (2.5 μCi/10 μM). The phosphorylated histone H1 (represent cdk activity) was measured by scintillation counting or by SDS-polyacrylaimde gel electrophoresis. The direct inhibitory effects of Meisoindigo and NATURA were also measured by reaction of immuno-purified specific enzyme from untreated cells directly with the Meisoindigo or NATURA.
When immuno-purified cdk2 from LNCaP cells was reacted with histone H1 in the presence of different concentrations of NATURA-β and γ-[^32P]-ATP (2.5 μCi/[…]), the enzyme activity was decreased in a concentration-dependent manner.
Two hundred mg of total protein extracts were immuno-precipitated with cdk2 antibody overnight at 4° C. After 4 washes with PBSTDS, and once with kinase assay buffer, the immuno-purified enzyme was then reacted for 10 min with 10 mg of histone H1 in the presence of different concentrations of NATURA or 50 mM of genistein (as a positive control) and γ-[^32P]-ATP (2.5 mCi/10 mM). The phosphorylated histone H1 (reflecting cdk2 activity) was detected either by SDS-PAGE (upper panel), or radioactive scintillation counting (lower panel, after eliminating free γ-[^32P]-ATP).

Walker 256 = experiment: Anticancer activity against Walker 256 sarcoma; conditions: Walker 256, rat, oral; Indirubin 100 × 9, Meisoindigo 106 × 9 mg/kgxd
Experimental: Anticancer activity against Walker 256: Wistar rats with body weights between 50 to 55 grams, were randomly divided into several groups, ten of each, respectively. Approximately 2×10^6 of the Walker sarcoma cells were transplanted into a Wistar rat. Twenty-four hours after the transplantation, equal molar dosage (0.384 mM/kg) of NATURA or other sugar derivatives were given orally for 10 days. The animals in the control group were given 0.1 ml saline (drug vehicle, negative control) for the same periods of time as treated group. Twenty-four hours after the last administration, the animals were sacrificed and tumors were removed and weighed.
(§4) Briefly, C57 mice, body weight between 18 to 22 grams, and rat, body weight between 50 to 55 grams, were randomly divided into several groups, ten of each, respectively. Approximately 2×10^6 of Lewis cancer cells or Walker sarcoma cells were transplanted into mice or rat. […] The animals in the control group were given 0.1 ml saline (drug vehicle, negative control) for the same periods of time as treated group. The animals at end of the treatment were sacrificed and tumors were removed and weighed.
In order to assess the anticancer activities of NATURA and other sugar derivatives, Wistard rats transplanted with W256 were given the same molar of the tested compounds (0.384 mM/kg) for the same period of time (10 days).

Lewis Lung Cancer = experiment: Anticancer activity in Lewis lung carcinoma animal model; assay type: in vivo, C57 mice; conditions: mice, oral, Indirubin 100 × 9, Meisoindigo 106 × 9 mg/kgxd
Experimental: as §4

LOVO = experiment: Growth inhibition by MTT, LOVO colon cancer cells; assay type: cell-based, Human; conditions: read-out: IC50 LOVO
Experimental: (§2) Growth inhibitory effects of NATURA and other agents on human cancer cells were determined by standard MTT (3-(4,5-dimethylthiazol-2-yl)-2,5-diphenyltetrazolium bromide Test) as described previously. Briefly, cancer cells grown exponentially were aliquoted into 96-well plates at a density of 5000 cells/200 μl per well in RPMI 1640 medium containing 10% FBS overnight. The cells in the plates were then exposed to series of dilution of indicated agent. After 72 h of incubation, 100 μl of the medium was removed from each of the wells and 50 μl of a 1 mg/ml solution of 3-(4,5-dimethylthiazol-2-yl)-2,5-diphenyltetrazolium bromide (MTT) was added to each well and the cells were incubated for additional 4 h. 200 μl of solution of 0.04 N HCl-isopropanol was added to each well to dissolve the black fromazan participates, and absorbance at 540 nm was measured on a 96-Well.

DLD-1 = experiment: Growth inhibition by MTT, DLD-1 colon cancer cells; assay type: cell-based, Human
Experimental: as §2
as §2, with “FIGS. 3-5 show the anticancer affects” for “Growth inhibitory effects”, “NATURA in MCF-7 breast cancer cells, DLD-1 colon cancer cells,” for “NATURA”, “LNCaP hormone-dependent prostate” for “other agents on human”, “cells. The” for “cells were determined by standard MTT (3-(4,5-dimethylthiazol-2-yl)-2,5-diphenyltetrazolium bromide Test) as described previously. Briefly,”, “fetal bovine serum (FBS)” for “FBS”, “96-Well Microplate Reader. Each experiment was repeated at least three times.” for “96-Well.”

PC-3 = experiment: Growth inhibition by MTT, PC-3 prostate cancer cells; assay type: cell-based, Human; conditions: read-out: IC50 PC-3
Experimental: as §2

LNCaP = experiment: Growth inhibition by MTT, LNCaP prostate cancer cells; assay type: cell-based, Human; conditions: MTT, 72 h exposure (Table 3), read-out: IC50 LNCaP
Experimental: as §2, with “Briefly, cancer cells grown exponentially were aliquoted into 96-well plates at a density of 5000 cells/200 μl per well in RPMI 1640 medium containing 10% FBS overnight.” left out
(§3) The cells in the plates were then exposed to series of dilution of indicated agent. After 72 h of incubation, 100 μl of the medium was removed from each of the wells and 50 μl of a 1 mg/ml solution of 3-(4,5-dimethylthiazol-2-yl)-2,5-diphenyltetrazolium bromide (MTT) was added to each well and the cells were incubated for additional 4 h. 200 μl of solution of 0.04 N HCl-isopropanol was added to each well to dissolve the black fromazan participates, and absorbance at 540 nm was measured on a 96-Well Microplate Reader. Each experiment was repeated at least three times.

SKBR-3 = experiment: Growth inhibition by MTT, SKBR-3 breast cancer cells; assay type: cell-based, Human; conditions: read-out: IC50 SKBR-3
Experimental: as §2

human cancer cell lines = experiment: Growth inhibition by MTT, all tested human cancer cell lines; assay type: cell-based; conditions: range over breast, colon, prostate lines, three day exposure, read-out: IC50, growth inhibitory effects on all tested human cancer cell lines
Experimental: as §2

DU145 = experiment: Growth inhibition by MTT, DU145 prostate cancer cells; assay type: cell-based, Human; conditions: read-out: IC50 DU145
Experimental: as §2

MCF-7 = experiment: Growth inhibition by MTT, MCF-7 breast cancer cells; assay type: cell-based, Human
Experimental: as §2
as §3, with “FIGS. 3-5 show the anticancer affects of NATURA in MCF-7 breast cancer cells, DLD-1 colon cancer cells, and LNCaP hormone-dependent prostate cancer cells. The cancer cells grown exponentially were aliquoted into 96-well plates at a density of 5000 cells/200 μl per well in RPMI 1640 medium containing 10% fetal bovine serum (FBS) overnight. The” for “The”

[2] = test system: polychromatic erythrocytes from bone marrow; experiment: Induction of micronuclei in rodent animals; assay type: in vivo; conditions: mice, 48 mg/kg intraperitoneally daily for 2 days, positive control
Experimental: Cyclophosphamine at dosage of 48 mg/kg was given intraperitoneally daily for 2 days as positive control. Six hrs after the latest administration, the animals were sacrificed, and polychromatic erythrocytes from bone marrow were stained with Giemsa to count micronuclei.

[3] = test system: extracellular signal-regulated protein kinase 2 (ERK2); experiment: ERK2 activity from treated LNCaP cells; assay type: cell-based, Human; conditions: different concentrations, 15 min
Experimental: as §1, with “The immuno-precipitates were washed 4 times with protein extraction buffer and once with kinase assay buffer, and reacted with 75 μg/ml histone H1 in the presence of [γ-^32P]-ATP (2.5 μCi/10 μM).” left out, “NATURA. […]” for “NATURA.”
LNCaP cells at exponential growth phase were exposed to different concentrations of NATURA (panel A & B) for 24 hrs, or to PD98059 (panel C) for 15 min. […] Upper panels are the imagines of x-ray films from SDS-PAGE, and lower panels represent the densities of each band from the films determined by an Imagine Densitometer from the same films (expressed as the percent of control).

[4] = Homo sapiens, DLD-1, 72 h exposure
[5] = Homo sapiens, PC-3, MTT, 72 h exposure

- inhibition at 50 µM [1]: ~56%
Compound: O=c1c(-c2ccc(O)cc2)coc2cc(O)cc(O)c12 [genistein]

Compound: O=C1Nc2ccccc2/C1=C1/Nc2ccccc2C1=O [Indirubin]
- Inhibition (%) (Walker 256): 59.4 ± 2.9%
- Tumor Size X ± SD (Walker 256): 3.94 ± 0.71
- Inhibition (%) (Lewis Lung Cancer): 26.3 ± 2.8%
- Tumor Size X ± SD (Lewis Lung Cancer): 2.58 ± 0.21

- IC50 (LOVO; Homo sapiens, LoVo, MTT, 72 h exposure): 0.00364 ± 0.00051 µM
- IC50 (DLD-1; [4]): 0.00315 ± 0.00037 µM
Compound: CC(=O)O[C@H]1C(=O)[C@@]2(C)[C@H]([C@H](OC(=O)c3ccccc3)[C@]3(O)C[C@H](OC(=O)[C@H](O)[C@@H](NC(=O)c4ccccc4)c4ccccc4)C(C)=C1C3(C)C)[C@]1(OC(C)=O)CO[C@@H]1C[C@@H]2O [Paclitaxel]

- IC50 (PC-3; MTT, 72 h exposure): > 50 µM
- IC50 (LNCaP): 16 ± 3.19 µM
- IC50 (SKBR-3; MTT, 72 h exposure): > 50 µM
- IC50 (human cancer cell lines): ≥ 21.4 µM
- IC50 (LOVO; MTT, 72 h exposure): 75.3 ± 12.5 µM
- IC50 (DU145; MTT, 72 h exposure): > 50 µM
- IC50 (DLD-1; 72 h exposure): 49.7 ± 5.72 µM
- IC50 (MCF-7; 72 h exposure): 21.4 ± 3.78 µM
Compound: CC1=C(/C=C/C(C)=C/C=C/C(C)=C/C(=O)O)C(C)(C)CCC1 [Retinoid Acid]

Compound: O=P1(N(CCCl)CCCl)NCCCO1 (centres unmarked) [Cyclophosphamine]
- micronuclei [2]: 41.16 per thousand

- IC50 (PC-3; MTT, 72 h exposure): > 200 µM
- IC50 (LNCaP): 65.5 ± 9.46 µM
- IC50 (SKBR-3; MTT, 72 h exposure): > 200 µM
- IC50 (human cancer cell lines): > 200 µM
- IC50 (LOVO; MTT, 72 h exposure): > 200 µM
- IC50 (DU145; MTT, 72 h exposure): > 200 µM
- IC50 (DLD-1; 72 h exposure): > 200 µM
- IC50 (MCF-7; 72 h exposure): > 200 µM
Compound: CS(=O)(=O)Nc1ccc([N+](=O)[O-])cc1OC1CCCCC1 [NS389]

Compound: COc1cccc2c1C(=O)c1c(O)c3c(c(O)c1C2=O)C[C@@](O)(C(C)=O)C[C@@H]3O[C@H]1C[C@H](N)[C@H](O)[C@H](C)O1 [Daunomycin]
- IC50 (PC-3; Homo sapiens, PC-3, 72 h): 0.24 ± 0.018 µM
- IC50 (SKBR-3; Homo sapiens, SK-BR-3, 72 h): 0.061 ± 0.0051 µM
- IC50 (LOVO; Homo sapiens, LoVo, 72 h): 0.035 ± 0.004 µM
- IC50 (DU145; Homo sapiens, DU-145, 72 h): 0.107 ± 0.004 µM
- IC50 (DLD-1; [4]): 0.094 ± 0.013 µM
- IC50 (MCF-7; Homo sapiens, MCF7, 72 h exposure): 0.054 ± 0.011 µM

Compound: COc1cccc(-c2cc(=O)c3ccccc3o2)c1N [PD98059]
- effect on ERK2 [3]: concentration-dependent inhibitory effects

- IC50 (PC-3; [5]): 134 ± 12.9 µM
- IC50 (LNCaP; Homo sapiens, LNCaP): 40.6 ± 7.12 µM
Compound: CC(C)(C)NC(=O)[C@H]1CC[C@H]2[C@@H]3CC[C@H]4NC(=O)C=C[C@]4(C)[C@H]3CC[C@]12C [Proscar]

- IC50 (PC-3; [5]): 120 ± 17.3 µM
- IC50 (LNCaP; Homo sapiens, LNCaP): 57.4 ± 7.21 µM
Compound: CC(O)(CS(=O)(=O)c1ccc(F)cc1)C(=O)Nc1ccc(C#N)c(C(F)(F)F)c1 (centres unmarked) [Casodex]
